Here are results for six compounds from patent US9663551B2, “Solanidine-derived compounds” (priority 2013, dated 2017).

What all share (type): in vivo
In experiment [1] the test system is Macrosiphum euphorbiae larvae. Description: Effects on larval survival (artificial medium feeding). To be noted: for aphicide activity on larvae compared with 0.2 mM solanidine: 0.002 mM; for Percentage of larval survival: after 16 days of treatment; for aphicide properties with respect to larvae compared with solanidine: 0.02 mM. As to the method:
(§1) The Macrosiphum euphorbiae population was initiated from an apterous female provided by the Laboratory of Functional Biology, Insects and Interactions of the INRA/INSA of Villeurbanne in 2004. She was captured in 1995 on an eggplant in the Rhone-Alps region. The Macrosiphum euphorbiae aphids were raised on Desiree variety potato plants indoors at 20±1° C., 60±5% relative humidity and under a photoperiod of 16 hours of light and 8 hours of darkness.
For the tests on Macrosiphum euphorbiae larvae, adults were isolated and placed in PVC cages on artificial medium for one day in order to synchronize their lineage. Neonates (40 per experiment), less than 24 hours old, are placed in PVC cages containing artificial medium alone (control experiment) or artificial medium supplemented with 0.002, 0.02 or 0.2 mM active compound.
(§2) The individuals were monitored every two days over a period of 16 days. With each recording, the artificial medium is changed. Each cage houses five aphids.
(§3) A standard diet was used as the basis for carrying out the physiological monitoring. Its composition was described by Febvay et al. (J. Zool. 1988, 66(11), 2449-2453) and then modified according to the conditions of Down et al. (J. Insect Physiol. 1996, 42(11-12), 1035-1045) as shown in Table 2. The medium is supplemented with active compound and placed between two layers of Parafilm® in sterile conditions.
(§4) The statistical analyses were performed using the Statistica 10 software (StatSoft®). To compare aphid survival in comparison with the control, Pearson's X^2 test (α<0.05) was applied. To compare the compounds in terms of concentration and nature, Fisher's least significant difference (LSD) test was applied (α<0.05). Daily fecundity was also studied using Fisher's LSD test (α<0.05).
The biological tests were carried out on Macrosiphum euphorbiae neonates less than 24 hours old. They are placed on artificial medium containing chaconine, solanine, solanidine, 100, 101 or 102.

For experiment [2], the system named is Macrosiphum euphorbiae adults. As to the kind of experiment: Effects on adult survival (artificial medium feeding). Particulars: for Percentage of adult survival: after 16 days of treatment. As for the experimental part:
as §1
(§5) For the tests on Macrosiphum euphorbiae adults, neonates (50 per experiment) resulting from synchronization are raised in petri dishes on leaves of Desiree variety potato plants for 10 days. Once the adult stage is reached, they are placed in PVC cages containing artificial medium alone (control experiment) or artificial medium supplemented with 0.002, 0.02 or 0.2 mM active compound.
as §2, §3, §4
The biological tests of compounds 100, 101 and 102 on Macrosiphum euphorbiae adults are presented in FIG. 2, and are compared to a control experiment.

The subject of experiment [3] is Macrosiphum euphorbiae reproduction. As to the kind of experiment: Effects on reproduction (daily fecundity per aphid). As for the experimental part: as §5, §2, §4
Data regarding the number of larvae resulting from parthenogenesis can be used to calculate daily fecundity per aphid. The results are presented in FIG. 3, wherein the number 10 represents the control, the reference numbers 12, 14 and 16 represent the results of compound 100 at the concentrations of 0.002, 0.02 and 0.2 mM, respectively, the reference numbers 18, 20 and 22 represent the results of compound 101 at the concentrations of 0.002, 0.02 and 0.2 mM, respectively, the reference numbers 24, 26, and 28 represent the results of compound 102 at the concentrations of 0.002, 0.02 and 0.2 mM, respectively.

“And” between values parts separate entries of the source, which are not always exact repeats. Equal entries are not always repeated.

For `CC1O[C@@H](OCc2cn(CCCO[C@H]3CC[C@@]4(C)C(=CCC5C6CC7C([C@H](C)C8CC[C@H](C)CN78)[C@@]6(C)CCC54)C3)nn2)C(O)C(O)[C@H]1O` (stereo partly drawn) [Compound 102, 3-O-{3-[4-(α-L-rhamnopyranosyloxymethyl)-1,2,3-triazol-1-yl]propyl}solanidine], in experiment [1], the “aphicide activity on larvae compared with 0.2 mM solanidine” value is recorded as “lower activity than 0.2 mM solanidine”. For the same compound, the “Percentage of larval survival” value in experiment [1] (0.002 mM in artificial medium) is 84a %; in experiment [1] (0.02 mM in artificial medium), 32% and 32b %; in experiment [1] (0.2 mM in artificial medium) it was 6% and 6d %. Besides, in experiment [1], the “aphicide properties with respect to larvae compared with solanidine” value (“aphicide properties … compared with solanidine” below) was “stronger than with solanidine”. Also, the “activity on adult survival in comparison with the control” value (“activity on adult survival” below) is on record as “no significant aphicide activity” in experiment [2] (0.002 mM), “marked effect on the survival of adults” in experiment [2] (0.02 mM) and “marked effect on the survival of adults” in experiment [2] (0.2 mM). For the same compound, the results for the “Percentage of adult survival” value in experiment [2] (0.002 mM in artificial medium), in experiment [2] (0.02 mM in artificial medium) and in experiment [2] (0.2 mM in artificial medium) were 95a %, 67b % and 7d %, respectively. In addition, the “effect on reproduction in comparison with the control” value (“effect on reproduction in comparison” below) in experiment [3] (0.02 mM) and in experiment [3] (0.2 mM) was “significantly reduce reproduction” in each case.

For the compound `C[C@H]1CC[C@@H]2[C@@H](C)[C@H]3[C@H](C[C@H]4[C@@H]5CC=C6C[C@@H](O)CC[C@]6(C)[C@H]5CC[C@]34C)N2C1` [Solanidine, solanidine], the “Percentage of larval survival” value in experiment [1] (0.002 mM in artificial medium) stood at 74a %; in experiment [1] (0.02 mM in artificial medium), 60d %; in experiment [1] (0.2 mM in artificial medium) it was 52b %.

Take `C[C@H]1CC[C@@H]2[C@@H](C)[C@H]3[C@H](C[C@H]4[C@@H]5CC=C6C[C@@H](O[C@@H]7O[C@H](CO)[C@H](O)[C@H](O[C@@H]8O[C@H](CO)[C@@H](O)[C@H](O)[C@H]8O)[C@H]7O[C@H]7O[C@@H](C)[C@H](O)[C@@H](O)[C@H]7O)CC[C@]6(C)[C@H]5CC[C@]34C)N2C1` [Solanine, solanine, reference compound]: the “Percentage of larval survival” value worked out at 82a % in experiment [1] (0.002 mM in artificial medium), 80a % in experiment [1] (0.02 mM in artificial medium) and 64c % in experiment [1] (0.2 mM in artificial medium).

For `C[C@H]1CCC2[C@@H](C)C3C(CC4C5CC=C6C[C@@H](OCCCn7cc(CO[C@@H]8OC(CO)[C@@H](O)C(O)C8O)nn7)CC[C@]6(C)C5CC[C@@]43C)N2C1` (stereo partly drawn) [Compound 100, 3-O-{3-[4-(β-D-glucopyranosyloxymethyl)-1,2,3-triazol-1-yl]propyl}solanidine], the “aphicide activity on larvae compared with 0.2 mM solanidine” value in experiment [1] is “lower activity than 0.2 mM solanidine”. Also, the “Percentage of larval survival” value in experiment [1] (0.002 mM in artificial medium) was 76a %; in experiment [1] (0.02 mM in artificial medium) it was 26% and 26b %; in experiment [1] (0.2 mM in artificial medium), 22% and 22c %. Besides, the “aphicide properties … compared with solanidine” value in experiment [1] was “stronger than with solanidine”. Besides, the “activity on adult survival” value is recorded as “no significant activity” in experiment [2] (0.002 mM), “no significant activity” in experiment [2] (0.02 mM) and “notable effect” in experiment [2] (0.2 mM). Moreover, the “Percentage of adult survival” value is recorded as 97a % in experiment [2] (0.002 mM in artificial medium), 81b % in experiment [2] (0.02 mM in artificial medium) and 46c % in experiment [2] (0.2 mM in artificial medium). In experiment [2] (Macrosiphum euphorbiae, 0.2 mM, read-out: mortality rate of adults), the mortality at 200 µM was determined as 54%. Moreover, the “effect on reproduction in comparison” value in experiment [3] (0.02 mM) and in experiment [3] (0.2 mM) was “significantly reduce reproduction” throughout.

Take `C[C@H]1CCC2[C@@H](C)C3C(CC4C5CC=C6C[C@@H](OCCCn7cc(CO[C@@H]8OC(CO)[C@H](O)C(O)C8O)nn7)CC[C@]6(C)C5CC[C@@]43C)N2C1` (stereo partly drawn) [Compound 101, 3-O-{3-[4-(β-D-galactopyranosyloxymethyl)-1,2,3-triazol-1-yl]propyl}solanidine]: in experiment [1], the “aphicide activity on larvae compared with 0.2 mM solanidine” value is reported as “lower activity than 0.2 mM solanidine”. The “Percentage of larval survival” value was 62a % in experiment [1] (0.002 mM in artificial medium); 33% and 33b % in experiment [1] (0.02 mM in artificial medium); 24% and 24c % in experiment [1] (0.2 mM in artificial medium). Moreover, in experiment [1], the “aphicide properties … compared with solanidine” value is recorded as “stronger than with solanidine”. For the same compound, the “Percentage of adult survival” value in experiment [2] (0.002 mM in artificial medium) came to 90a %; in experiment [2] (0.02 mM in artificial medium), 73b %; in experiment [2] (0.2 mM in artificial medium) it was 54c %. The “activity on adult survival” value in experiment [2] (0.02 mM) and in experiment [2] (0.2 mM) was “drop in the survival rate” in each case. Further, the “effect on reproduction in comparison” value in experiment [3] (0.02 mM) and in experiment [3] (0.2 mM) was “significantly reduce reproduction” throughout.

For `C[C@H]1CC[C@@H]2[C@@H](C)[C@H]3[C@H](C[C@H]4[C@@H]5CC=C6C[C@@H](O[C@@H]7O[C@H](CO)[C@H](O[C@@H]8O[C@@H](C)[C@H](O)[C@@H](O)[C@H]8O)[C@H](O)[C@@H]7O[C@@H]7O[C@@H](C)[C@@H](O)[C@@H](O)[C@H]7O)CC[C@]6(C)[C@H]5CC[C@]34C)N2C1` [Chaconine, chaconine, reference compound], the results for the “Percentage of larval survival” value in experiment [1] (0.002 mM in artificial medium), in experiment [1] (0.02 mM in artificial medium) and in experiment [1] (0.2 mM in artificial medium) were 72a %, 70a % and 52b %, respectively.
